Data taken from patent publication US6750228B1, “Aromatic sulfone hydroxamic acid metalloprotease inhibitor” (priority 1997, dated 2004).
Where a name gives a salt, the structure may show the parent alone. Read-outs that look alike come from different tables or passages of the source.

Legend:
Assay in all cases: biochemical
MMP-2 = biological target: T1, MMP-2 (Homo sapiens, UniProt P08253); conditions: read-out: MMP-2 IC50
T1 construct: made in house; provided by Dr. Gregory Goldberg, Washington University
T1 sequence (P08253 110-660): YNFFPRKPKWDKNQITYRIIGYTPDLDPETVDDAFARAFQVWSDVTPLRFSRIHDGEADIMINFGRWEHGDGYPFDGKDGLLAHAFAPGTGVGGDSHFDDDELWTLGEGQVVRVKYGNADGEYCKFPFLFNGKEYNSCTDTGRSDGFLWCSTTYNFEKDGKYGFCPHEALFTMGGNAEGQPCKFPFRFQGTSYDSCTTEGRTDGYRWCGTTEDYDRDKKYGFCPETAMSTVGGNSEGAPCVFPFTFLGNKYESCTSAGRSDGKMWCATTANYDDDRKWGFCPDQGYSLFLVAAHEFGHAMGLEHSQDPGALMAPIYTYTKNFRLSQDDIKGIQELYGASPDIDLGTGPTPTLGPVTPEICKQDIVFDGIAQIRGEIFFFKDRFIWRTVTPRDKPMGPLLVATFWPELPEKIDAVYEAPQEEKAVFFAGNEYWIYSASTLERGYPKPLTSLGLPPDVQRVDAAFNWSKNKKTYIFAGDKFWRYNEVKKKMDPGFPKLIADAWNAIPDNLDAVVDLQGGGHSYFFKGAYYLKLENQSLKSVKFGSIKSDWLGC
Outline: (§1)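 APMA- or trypsin-activated enzymes were preincubated with inhibitor for 5 min at room temperature, then the fluorogenic substrate MCA-Pro-Leu-Gly-Leu-Dpa-Ala-Arg-NH2 was added to a final 4 μM.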

MMP-1 = biological target: T2, MMP-1 (Homo sapiens, UniProt P03956); conditions: read-out: MMP-1 IC50
T2 construct: made in house; host or cells: transfected HT-1080 cells (provided by Dr. Harold Welgus, Washington University)
T2 sequence (P03956 100-469): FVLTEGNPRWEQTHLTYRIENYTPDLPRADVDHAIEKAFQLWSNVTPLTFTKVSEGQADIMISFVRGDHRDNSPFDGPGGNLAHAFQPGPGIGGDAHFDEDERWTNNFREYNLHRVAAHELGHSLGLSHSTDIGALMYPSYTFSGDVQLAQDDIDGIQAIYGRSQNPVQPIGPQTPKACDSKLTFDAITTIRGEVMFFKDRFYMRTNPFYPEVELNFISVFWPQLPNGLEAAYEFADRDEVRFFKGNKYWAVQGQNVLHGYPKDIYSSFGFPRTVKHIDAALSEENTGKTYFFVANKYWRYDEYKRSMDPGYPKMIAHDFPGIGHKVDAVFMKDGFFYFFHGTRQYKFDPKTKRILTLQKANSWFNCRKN
Outline: as §1

MMP-13 = biological target: T3, MMP-13 (Homo sapiens, UniProt P45452); conditions: read-out: MMP-13 IC50
T3 construct: made in house; host or cells: baculovirus / insect cells
Outline: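 Assay buffer 100 mM Tris-HCl, 100 mM NaCl, 10 mM CaCl2, pH 7.5. Activated MMP + inhibitor, 5 min RT; then methoxycoumarin peptide substrate, 4 μM final. Readout fluorescence; IC50 calculated.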

[1] = recombinant human MMP-2, MCA peptide substrate 4 μM, pH 7.5, room temperature
[2] = recombinant human MMP-1, MCA peptide substrate 4 μM, pH 7.5, room temperature
[3] = recombinant human MMP-13, MCA peptide substrate 4 μM, pH 7.5, room temperature

Compound	IC50 (MMP-2; [1]) [nM]	IC50 (MMP-1; [2]) [nM]	IC50 (MMP-13; [3]) [nM]	IC50 (MMP-1) [nM]	IC50 (MMP-2) [nM]	IC50 (MMP-13) [nM]
O=C(Nc1cccc(C(F)(F)F)c1)OC1CCN(c2ccc(S(=O)(=O)C3(C(=O)NO)CCOCC3)cc2)CC1 [Example 188, N-Hydroxy-4[[[4-[(3-trifluoromethyl)phenylcarbamoxy]piperidyl]phenyl]sulfonyl]-1-tetrahydropyrancarboxamide]	235	> 10000	7			
O=C(NO)C1(S(=O)(=O)c2ccc(N3CCN(S(=O)(=O)c4cccc5nsnc45)CC3)cc2)CCOCC1 [Example 691]	130	> 10000	10			
O=C(c1ccc2c(c1)OCCO2)C1CCN(c2ccc(S(=O)(=O)C3(C(=O)NO)CCOCC3)cc2)CC1 [Example 797]	175		4	> 10000		
O=C(CNCc1cccnc1)N1CCC(C(=O)NO)(S(=O)(=O)c2ccc(Oc3ccc(C(F)(F)F)cc3)cc2)CC1 [Example 316]	0.2	> 10000	0.4			
O=C(NO)C1(S(=O)(=O)c2ccc(N3CCCN(c4ccc(OC(F)(F)F)cc4)CC3)cc2)CCOCC1 [Example 708]	3000	> 10000	114			
CC1CC(C)CN(C(=O)C2CCN(c3ccc(S(=O)(=O)C4(C(=O)NO)CCN(C(=O)Cn5ccnc5)CC4)cc3)CC2)C1 (stereo not drawn) [Example 279]	7300	> 10000	20			
COCCN1CCC(C(=O)NO)(S(=O)(=O)c2ccc(N3CCC(C(=O)Nc4ccc(OC(F)(F)F)cc4)CC3)cc2)CC1 [Example 248, N-Hydroxy-1-(2-methoxyethyl)-4-[[4-[4-[[[4-(trifluoromethoxy)phenyl]amino]carbonyl]-1-piperidinyl]-phenyl]sulfonyl]-4-piperidinecarboxamide, Monohydrochloride]	270	> 10000	2.29			
O=C(NO)C1(S(=O)(=O)c2ccc(N3CC=C(c4ccccc4)CC3)cc2)CCOCC1 [Example 587]	1	> 10000	1.8			
COc1cc(OC)cc(OC2CCN(c3ccc(S(=O)(=O)C4(C(=O)NO)CCOCC4)cc3)CC2)c1 [Example 639]	1.5	9400	1.5			
O=C(NCc1ccccc1)N1CC(Oc2ccc(S(=O)(=O)C3(C(=O)NO)CCOCC3)cc2)C1 [Example 658]	1000	> 10000	12.2			
Cc1cc(C)cc(OC2CCN(c3ccc(S(=O)(=O)C4(C(=O)NO)CCOCC4)cc3)CC2)c1 [Example 187]	600	> 10000	10			
CC(=O)c1ccc(OC2CCN(c3ccc(S(=O)(=O)C4(C(=O)NO)CCOCC4)cc3)CC2)cc1 [Example 470]	2000	> 10000	140			
N#Cc1ccccc1-c1ccc(COC2CCN(c3ccc(S(=O)(=O)C4(C(=O)NO)CCOCC4)cc3)CC2)cc1 [Example 557]	200	> 10000	16.9			
CCN(Cc1ccncc1)C(=O)C1CCN(c2ccc(S(=O)(=O)C3(C(=O)NO)CCOCC3)cc2)CC1 [Example 52]	1900	> 10000	90			
CN(C)c1cccc(C(=O)C2CCN(c3ccc(S(=O)(=O)C4(C(=O)NO)CCOCC4)cc3)CC2)c1 [Example 790]	700	> 10000	4.5			
CC(C)CN(C)C(=O)C1CCN(c2ccc(S(=O)(=O)C3(C(=O)NO)CCOCC3)cc2)CC1 [Example 58]	4000	> 10000	22			
COCCc1ccc(OC2CCN(c3ccc(S(=O)(=O)C4(C(=O)NO)CCOCC4)cc3)CC2)cc1 [Example 643]	1.2	6000	1.8			
CC(=O)N1CCC(C(=O)NO)(S(=O)(=O)c2ccc(N3CCC(C(=O)Nc4ccccc4)CC3)cc2)CC1 [Example 245, 1-Acetyl-N-hydroxy-4-[[4-[4-[(phenylamino)carbonyl]-1-piperidinyl]phenyl]sulfonyl]-4-piperidinecarboxamide]	800	> 10000	20			
COCCN(CCCCC(=O)N1CCC(C(=O)NO)(S(=O)(=O)c2ccc(Oc3ccc(C(F)(F)F)cc3)cc2)CC1)CCOC [Example 342]	0.3	> 10000	4			

Compound	IC50 (MMP-2; [1]) [nM]	IC50 (MMP-1; [2]) [nM]	IC50 (MMP-13; [3]) [nM]	IC50 (MMP-1) [nM]	IC50 (MMP-2) [nM]	IC50 (MMP-13) [nM]
O=C(NO)C1(S(=O)(=O)c2ccc(N3CC[C@@H](OCc4ccc(F)cc4)C3)cc2)CCOCC1 [Example 531]	10	> 10000	13			
CC1CC(C)CN(C(=O)C2CCN(c3ccc(S(=O)(=O)C4(C(=O)NO)CCN(C(=O)CN(C)C)CC4)cc3)CC2)C1 (stereo not drawn) [Example 294]	> 10000	> 1000	59.1			
O=C(NO)C1(S(=O)(=O)c2ccc(N3CCC(Oc4cc(F)cc(F)c4)CC3)cc2)CCOCC1 [Example 545]	120	> 10000	7.7			
Cc1ccc(C(=O)C2CCN(c3ccc(S(=O)(=O)C4(C(=O)NO)CCN(C5CC5)CC4)cc3)CC2)cc1C [Example 383]	700	> 10000	3			
O=C(Nc1ccc(C(F)(F)F)cc1)N1CCC(C(=O)NO)(S(=O)(=O)c2ccc(Oc3ccc(OC(F)(F)F)cc3)cc2)CC1 [Example 366]	2.5	> 10000	13			
O=C(C1CCN(c2ccc(S(=O)(=O)C3(C(=O)NO)CCOCC3)cc2)CC1)N1CCN(c2ccc(F)cc2F)CC1 [Example 36]				> 10000	2100	15.8
O=C(NO)C1(S(=O)(=O)c2ccc(N3CCC(Oc4ccccc4O)CC3)cc2)CCOCC1 [Example 835]	20	> 10000	6			
O=C(NCC1CC1)C1CCN(c2ccc(S(=O)(=O)C3(C(=O)NO)CCOCC3)cc2)CC1 [Example 53]	1400	> 10000	28.9			
O=C(NO)C1(S(=O)(=O)c2ccc(N3CCC(CC4CC4)CC3)cc2)CCOCC1 [Example 816]	> 10000	> 10000	1200			
O=C(NO)C1(S(=O)(=O)c2ccc(N3CCC(OCc4cccc(C(F)(F)F)c4)CC3)cc2)CCN(C2CC2)CC1 [Example 402]	340	> 10000	15.8			
O=CN1CCC(C(=O)NO)(S(=O)(=O)c2ccc(Oc3ccc(OC(F)(F)F)cc3)cc2)CC1 [Example 416]	0.2	3000	0.4			
O=C(NO)C1(S(=O)(=O)c2ccc(N3CCCCC3CCOCc3ccc(F)cc3)cc2)CCOCC1 (stereo not drawn) [Example 510]	> 10000	> 10000	7700			
C[C@@H]1C[C@H](C)CN(C(=O)C2CCN(c3ccc(S(=O)(=O)C4(C(=O)NO)CCN(C(=O)CCl)CC4)cc3)CC2)C1 [Example 276]	> 10000	> 10000	37.3			
O=C(Nc1ccc(F)cc1)C1CCN(c2ccc(S(=O)(=O)C3(C(=O)NO)CCOCC3)cc2)CC1 [Example 75]	500	> 10000	11.5			
O=C(NO)C1(S(=O)(=O)c2ccc(N3CCC(CCOCc4ccc(F)cc4)CC3)cc2)CCOCC1 [Example 500]	22	> 10000	3			
O=C(Nc1ccccc1)OC1CCN(c2ccc(S(=O)(=O)C3(C(=O)NO)CCOCC3)cc2)CC1 [Example 515]	27		8	> 10000		
COc1cc2c(cc1OC)CN(c1ccc(S(=O)(=O)C3(C(=O)NO)CCN(C4CC4)CC3)cc1)CC2 [Example 464]	400	> 10000	120			
COCCN1CCC(C(=O)NO)(S(=O)(=O)c2ccc(N3CCC(OCc4ccc(F)c(C(F)(F)F)c4)CC3)cc2)CC1 [Example 446]	7000	> 10000	270			
